Measured values from patent US9738634B2, “Heterocyclic amide compound and herbicide” (SYNGENTA PARTICIPATIONS AG, priority 2013, dated 2017).

Experiments:
Format in all cases: in vivo
green foxtail = assay: Test Example 3: weedkilling efficacy through soil treatment; E: green foxtail; conditions: soil treatment, treatment dosage 315 g/ha
How it was run: (§1)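 Crop and weed responses were judged three weeks after a uniform surface spray of the water-diluted emulsion at the given g/ha rate. Seeds sat beneath about 1.5 cm of sterilized diluvial soil, and boxes stood in a greenhouse at 25 to 30° C.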

bulrush [1] = assay: Test Example 2: weedkilling efficacy, growth period weed treatment in the submerged state; B: bulrush; conditions: treatment dosage 252 g/ha
How it was run: (§2)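 First, alluvial soil in pots is flooded to 4 cm and mixed seed is sown. Next, plants grow in a greenhouse at 25 to 30° C until the 1-2 leaf stage. Then diluted emulsion is applied onto the water surface at the given g/ha rate, and injury is assessed after 3 weeks.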

barnyard grass [2] = assay: Test Example 1: weedkilling efficacy, preemergent weed treatment in the submerged state; A: barnyard grass; conditions: treatment dosage 252 g/ha
How it was run: (§3)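 Alluvial soil in Wagner pots flooded to 4 cm; barnyard grass, bulrush and oval-leafed pondweed seeds sown, then 2.5-leaf rice seedlings transplanted. Same day, emulsified compound diluted in water to set g/ha dosages and applied to water surface; greenhouse 25–30 °C, effect scored by criteria after 3 weeks.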

Italian ryegrass = assay: Test Example 3: weedkilling efficacy through soil treatment; I: Italian ryegrass; conditions: soil treatment, treatment dosage 315 g/ha
How it was run: as §1

wheat = assay: Test Example 3: soil treatment, effect on crop; e: wheat; conditions: soil treatment, treatment dosage 315 g/ha
How it was run: as §1

common wind-grass = assay: Test Example 3: weedkilling efficacy through soil treatment; J: common wind-grass; conditions: soil treatment, treatment dosage 315 g/ha
How it was run: as §1

oval-leafed pondweed [3] = assay: Test Example 2: weedkilling efficacy, growth period weed treatment in the submerged state; C: oval-leafed pondweed; conditions: treatment dosage 252 g/ha
How it was run: as §2

wild oat = assay: Test Example 3: weedkilling efficacy through soil treatment; G: wild oat; conditions: soil treatment, treatment dosage 315 g/ha
How it was run: as §1

crabgrass = assay: Test Example 3: weedkilling efficacy through soil treatment; D: crabgrass; conditions: soil treatment, treatment dosage 315 g/ha
How it was run: as §1

beet = assay: Test Example 3: soil treatment, effect on crop; f: beet; conditions: soil treatment, treatment dosage 315 g/ha
How it was run: as §1

directly sown rice = assay: Test Example 3: soil treatment, effect on crop; b: directly sown rice; conditions: soil treatment, treatment dosage 315 g/ha
How it was run: as §1

barnyard grass [4] = assay: Test Example 2: weedkilling efficacy, growth period weed treatment in the submerged state; A: barnyard grass; conditions: treatment dosage 252 g/ha
How it was run: as §2

bulrush [5] = assay: Test Example 1: weedkilling efficacy, preemergent weed treatment in the submerged state; B: bulrush; conditions: treatment dosage 252 g/ha
How it was run: as §3

redroot pigweed = assay: Test Example 3: weedkilling efficacy through soil treatment; L: redroot pigweed; conditions: soil treatment, treatment dosage 315 g/ha
How it was run: as §1

Indian mallow = assay: Test Example 3: weedkilling efficacy through soil treatment; K: Indian mallow; conditions: soil treatment, treatment dosage 315 g/ha
How it was run: as §1

transplanted rice = assay: Test Example 1: preemergent weed treatment in the submerged state, effect on crop; a: transplanted rice; conditions: treatment dosage 252 g/ha
How it was run: as §3

soybean = assay: Test Example 3: soil treatment, effect on crop; d: soybean; conditions: soil treatment, treatment dosage 315 g/ha
How it was run: as §1

black-grass = assay: Test Example 3: weedkilling efficacy through soil treatment; H: black-grass; conditions: soil treatment, treatment dosage 315 g/ha
How it was run: as §1

barnyard grass [6] = assay: Test Example 3: weedkilling efficacy through soil treatment; F: barnyard grass; conditions: soil treatment, treatment dosage 315 g/ha
How it was run: as §1

birds-eye speedwell = assay: Test Example 3: weedkilling efficacy through soil treatment; p: birds-eye speedwell; conditions: soil treatment, treatment dosage 315 g/ha
How it was run: as §1

chickweed = assay: Test Example 3: weedkilling efficacy through soil treatment; N: chickweed; conditions: soil treatment, treatment dosage 315 g/ha
How it was run: as §1

oval-leafed pondweed [7] = assay: Test Example 1: weedkilling efficacy, preemergent weed treatment in the submerged state; C: oval-leafed pondweed; conditions: treatment dosage 252 g/ha
How it was run: as §3

rapeseed = assay: Test Example 3: soil treatment, effect on crop; g: rapeseed; conditions: soil treatment, treatment dosage 315 g/ha
How it was run: as §1

catchweed = assay: Test Example 3: weedkilling efficacy through soil treatment; O: catchweed; conditions: soil treatment, treatment dosage 315 g/ha
How it was run: as §1

corn = assay: Test Example 3: soil treatment, effect on crop; c: corn; conditions: soil treatment, treatment dosage 315 g/ha
How it was run: as §1

CC(C)(C(=O)Nc1cc(F)cc(F)n1)N1COCN(c2ccccc2)C1=O [A-2-13]
E: green foxtail, weedkilling efficacy grade (green foxtail): 5 (weed kill ratio 90% or more, (practically complete withering))
B (bulrush) weedkilling efficacy grade (bulrush [1]): 5 (weed kill ratio 90% or more, (practically complete withering))
A: barnyard grass, weed kill grade (barnyard grass [2]): 5 (weed kill ratio 90% or more, (practically complete withering))
I: Italian ryegrass, weedkilling efficacy grade (Italian ryegrass): 5 (weed kill ratio 90% or more, (practically complete withering))
e: wheat, effect on crop grade (wheat): 5 (weed kill ratio 90% or more, (practically complete withering))
J: common wind-grass, weedkilling efficacy grade (common wind-grass): 5 (weed kill ratio 90% or more, (practically complete withering))
C (oval-leafed pondweed) weedkilling efficacy grade (oval-leafed pondweed [3]): 5 (weed kill ratio 90% or more, (practically complete withering))
G: wild oat, weedkilling efficacy grade (wild oat): 5 (weed kill ratio 90% or more, (practically complete withering))
D: crabgrass, weedkilling efficacy grade (crabgrass): 5 (weed kill ratio 90% or more, (practically complete withering))
f: beet, effect on crop grade (beet): 4 (weed kill ratio 70% or more, less than 90%)
b: directly sown rice, effect on crop grade (directly sown rice): 5 (weed kill ratio 90% or more, (practically complete withering))
A (barnyard grass) weedkilling efficacy grade (barnyard grass [4]): 5 (weed kill ratio 90% or more, (practically complete withering))
B: bulrush, weed kill grade (bulrush [5]): 5 (weed kill ratio 90% or more, (practically complete withering))
L: redroot pigweed, weedkilling efficacy grade (redroot pigweed): 5 (weed kill ratio 90% or more, (practically complete withering))
K: Indian mallow, weedkilling efficacy grade (Indian mallow): 5 (weed kill ratio 90% or more, (practically complete withering))
a: transplanted rice, effect on crop grade (transplanted rice): 3 (weed kill ratio 40% or more, less than 70%)
d: soybean, effect on crop grade (soybean): 3 (weed kill ratio 40% or more, less than 70%)
H: black-grass, weedkilling efficacy grade (black-grass): 5 (weed kill ratio 90% or more, (practically complete withering))
F: barnyard grass, weedkilling efficacy grade (barnyard grass [6]): 5 (weed kill ratio 90% or more, (practically complete withering))
P: birds-eye speedwell, weedkilling efficacy grade (birds-eye speedwell): 5 (weed kill ratio 90% or more, (practically complete withering))
N: chickweed, weedkilling efficacy grade (chickweed): 5 (weed kill ratio 90% or more, (practically complete withering))
C: oval-leafed pondweed, weed kill grade (oval-leafed pondweed [7]): 5 (weed kill ratio 90% or more, (practically complete withering))
g: rapeseed, effect on crop grade (rapeseed): 5 (weed kill ratio 90% or more, (practically complete withering))
O: catchweed, weedkilling efficacy grade (catchweed): 5 (weed kill ratio 90% or more, (practically complete withering))
c: corn, effect on crop grade (corn): 4 (weed kill ratio 70% or more, less than 90%)
